Assay: Inhibition of Saccharomyces cerevisiae alpha-glucosidase using p-nitrophenyl-alpha-D-glucopyranoside as substrate measured after 30 mins

Structure (SMILES): C/C=C/c1cc(=O)c2ccccc2n1C
- IC50: > 250 µM

Structure (SMILES): CCCC[C@@H](CC)COC(=O)c1cn[nH]n1
- IC50: 138 µM

Source: ChEMBL document CHEMBL4190275, “Quinoliniumolate and 2H-1,2,3-Triazole Derivatives from the Stems of Paramignya trimera and Their α-Glucosidase Inhibitory Activities: In Vitro and in Silico Studies” (J Nat Prod, 2017)
